{"source": "the supplement of paper PMC10307832", "test_in_all_cases": "relative viability (nuclei count vs DMSO), 5 days (fraction); higher = more cells survive", "key": {"A-427": {"system": "A-427", "procedure,_shortened": "(§1)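 Lung cancer cell lines in 1536-well plates got either a single drug or a fixed anchor-drug dose together with five library-drug doses (not always all listed) in √10 steps, by pin tool, on the day after seeding. Nuclei were counted after 5 days, and relative viability is the treated-to-vehicle ratio of nuclei counts. Values are medians of duplicate plates.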"}, "COR-L 105": {"system": "COR-L 105", "procedure,_shortened": "as §1"}, "ChaGo-K-1": {"system": "ChaGo-K-1", "procedure,_shortened": "as §1"}, "EKVX": {"system": "EKVX", "procedure,_shortened": "as §1"}, "EMC-BAC-2": {"system": "EMC-BAC-2", "procedure,_shortened": "as §1"}, "EPLC-272H": {"system": "EPLC-272H", "procedure,_shortened": "as §1"}, "HARA": {"system": "HARA", "procedure,_shortened": "as §1"}, "HCC-44": {"system": "HCC-44", "procedure,_shortened": "as §1"}, "LK-2": {"system": "LK-2", "procedure,_shortened": "as §1"}, "LU99A": {"system": "LU99A", "procedure,_shortened": "as §1"}, "NCI-H1650": {"system": "NCI-H1650", "procedure,_shortened": "as §1"}, "NCI-H1734": {"system": "NCI-H1734", "procedure,_shortened": "as §1"}, "NCI-H1755": {"system": "NCI-H1755", "procedure,_shortened": "as §1"}, "NCI-H1792": {"system": "NCI-H1792", "procedure,_shortened": "as §1"}, "NCI-H1993": {"system": "NCI-H1993", "procedure,_shortened": "as §1"}, "NCI-H2405": {"system": "NCI-H2405", "procedure,_shortened": "as §1"}, "NCI-H358": {"system": "NCI-H358", "procedure,_shortened": "as §1"}, "NCI-H460": {"system": "NCI-H460", "procedure,_shortened": "as §1"}, "NCI-H522": {"system": "NCI-H522", "procedure,_shortened": "as §1"}, "NCI-H596": {"system": "NCI-H596", "procedure,_shortened": "as §1"}, "NCI-H647": {"system": "NCI-H647", "procedure,_shortened": "as §1"}, "RERF-LC-KJ": {"system": "RERF-LC-KJ", "procedure,_shortened": "as §1"}, "SW 900": {"system": "SW 900", "procedure,_shortened": "as §1"}}}
{"smiles": "CN1CCN(CCOc2cc(OC3CCOCC3)c3c(Nc4c(Cl)ccc5c4OCO5)ncnc3c2)CC1", "note": "[Saracatinib] + CCNC(=O)c1noc(-c2cc(C(C)C)c(O)cc2O)c1-c1ccc(CN2CCOCC2)cc1 [Luminespib] (partner 0.01 µM)", "values": [{"measurement": "relative viability", "setting": "A-427; first compound 0.02 µM", "value": 0.985}, {"measurement": "relative viability", "setting": "A-427; first compound 0.2 µM", "value": 0.755}, {"measurement": "relative viability", "setting": "A-427; first compound 0.6325 µM", "value": 0.907}, {"measurement": "relative viability", "setting": "A-427; first compound 2 µM", "value": 0.888}, {"measurement": "relative viability", "setting": "COR-L 105; first compound 0.02 µM", "value": 0.893}, {"measurement": "relative viability", "setting": "COR-L 105; first compound 0.2 µM", "value": 0.692}, {"measurement": "relative viability", "setting": "COR-L 105; first compound 0.6325 µM", "value": 0.608}, {"measurement": "relative viability", "setting": "COR-L 105; first compound 2 µM", "value": 0.467}, {"measurement": "relative viability", "setting": "ChaGo-K-1; first compound 0.02 µM", "value": 0.663}, {"measurement": "relative viability", "setting": "ChaGo-K-1; first compound 0.2 µM", "value": 0.388}, {"measurement": "relative viability", "setting": "ChaGo-K-1; first compound 0.6325 µM", "value": 0.7}, {"measurement": "relative viability", "setting": "ChaGo-K-1; first compound 2 µM", "value": 0.555}, {"measurement": "relative viability", "setting": "EKVX; first compound 0.02 µM", "value": 0.812}, {"measurement": "relative viability", "setting": "EKVX; first compound 0.6325 µM", "value": 0.883}, {"measurement": "relative viability", "setting": "EKVX; first compound 2 µM", "value": 0.532}, {"measurement": "relative viability", "setting": "EMC-BAC-2; first compound 0.02 µM", "value": 1.21}, {"measurement": "relative viability", "setting": "EMC-BAC-2; first compound 0.2 µM", "value": 0.894}, {"measurement": "relative viability", "setting": "EMC-BAC-2; first compound 0.6325 µM", "value": 1.16}, {"measurement": "relative viability", "setting": "EMC-BAC-2; first compound 2 µM", "value": 0.978}, {"measurement": "relative viability", "setting": "EPLC-272H; first compound 0.02 µM", "value": 0.24}, {"measurement": "relative viability", "setting": "EPLC-272H; first compound 0.2 µM", "value": 0.382}, {"measurement": "relative viability", "setting": "EPLC-272H; first compound 0.6325 µM", "value": 0.123}, {"measurement": "relative viability", "setting": "EPLC-272H; first compound 2 µM", "value": 0.197}, {"measurement": "relative viability", "setting": "HARA; first compound 0.02 µM", "value": 0.686}, {"measurement": "relative viability", "setting": "HARA; first compound 0.2 µM", "value": 0.606}, {"measurement": "relative viability", "setting": "HARA; first compound 0.6325 µM", "value": 0.485}, {"measurement": "relative viability", "setting": "HARA; first compound 2 µM", "value": 0.367}, {"measurement": "relative viability", "setting": "HCC-44; first compound 0.02 µM", "value": 0.972}, {"measurement": "relative viability", "setting": "HCC-44; first compound 0.2 µM", "value": 0.921}, {"measurement": "relative viability", "setting": "HCC-44; first compound 0.6325 µM", "value": 1.32}, {"measurement": "relative viability", "setting": "HCC-44; first compound 2 µM", "value": 0.952}, {"measurement": "relative viability", "setting": "LK-2; first compound 0.02 µM", "value": 0.218}, {"measurement": "relative viability", "setting": "LK-2; first compound 0.2 µM", "value": 0.209}, {"measurement": "relative viability", "setting": "LK-2; first compound 0.6325 µM", "value": 0.199}, {"measurement": "relative viability", "setting": "LK-2; first compound 2 µM", "value": 0.186}, {"measurement": "relative viability", "setting": "LU99A; first compound 0.02 µM", "value": 0.214}, {"measurement": "relative viability", "setting": "LU99A; first compound 0.2 µM", "value": 0.203}, {"measurement": "relative viability", "setting": "LU99A; first compound 0.6325 µM", "value": 0.26}, {"measurement": "relative viability", "setting": "LU99A; first compound 2 µM", "value": 0.232}, {"measurement": "relative viability", "setting": "NCI-H1650; first compound 0.02 µM", "value": 0.188}, {"measurement": "relative viability", "setting": "NCI-H1650; first compound 0.2 µM", "value": 0.187}, {"measurement": "relative viability", "setting": "NCI-H1650; first compound 0.6325 µM", "value": 0.188}, {"measurement": "relative viability", "setting": "NCI-H1650; first compound 2 µM", "value": 0.221}, {"measurement": "relative viability", "setting": "NCI-H1734; first compound 0.02 µM", "value": 0.224}, {"measurement": "relative viability", "setting": "NCI-H1734; first compound 0.6325 µM", "value": 0.213}, {"measurement": "relative viability", "setting": "NCI-H1734; first compound 2 µM", "value": 0.181}, {"measurement": "relative viability", "setting": "NCI-H1755; first compound 0.02 µM", "value": 0.456}, {"measurement": "relative viability", "setting": "NCI-H1755; first compound 0.2 µM", "value": 0.329}, {"measurement": "relative viability", "setting": "NCI-H1755; first compound 0.6325 µM", "value": 0.447}, {"measurement": "relative viability", "setting": "NCI-H1755; first compound 2 µM", "value": 0.414}, {"measurement": "relative viability", "setting": "NCI-H1792; first compound 0.02 µM", "value": 0.369}, {"measurement": "relative viability", "setting": "NCI-H1792; first compound 0.2 µM", "value": 0.463}, {"measurement": "relative viability", "setting": "NCI-H1792; first compound 0.6325 µM", "value": 0.449}, {"measurement": "relative viability", "setting": "NCI-H1792; first compound 2 µM", "value": 0.358}, {"measurement": "relative viability", "setting": "NCI-H1993; first compound 0.02 µM", "value": 0.907}, {"measurement": "relative viability", "setting": "NCI-H1993; first compound 0.2 µM", "value": 0.716}, {"measurement": "relative viability", "setting": "NCI-H1993; first compound 0.6325 µM", "value": 0.783}, {"measurement": "relative viability", "setting": "NCI-H1993; first compound 2 µM", "value": 0.561}, {"measurement": "relative viability", "setting": "NCI-H2405; first compound 0.02 µM", "value": 0.588}, {"measurement": "relative viability", "setting": "NCI-H2405; first compound 0.2 µM", "value": 0.525}, {"measurement": "relative viability", "setting": "NCI-H2405; first compound 0.6325 µM", "value": 0.519}, {"measurement": "relative viability", "setting": "NCI-H2405; first compound 2 µM", "value": 0.271}, {"measurement": "relative viability", "setting": "NCI-H358; first compound 0.02 µM", "value": 0.174}, {"measurement": "relative viability", "setting": "NCI-H358; first compound 0.2 µM", "value": 0.208}, {"measurement": "relative viability", "setting": "NCI-H358; first compound 0.6325 µM", "value": 0.309}, {"measurement": "relative viability", "setting": "NCI-H358; first compound 2 µM", "value": 0.318}, {"measurement": "relative viability", "setting": "NCI-H460; first compound 0.02 µM", "value": 0.0378}, {"measurement": "relative viability", "setting": "NCI-H460; first compound 0.2 µM", "value": 0.0238}, {"measurement": "relative viability", "setting": "NCI-H460; first compound 0.6325 µM", "value": 0.0253}, {"measurement": "relative viability", "setting": "NCI-H460; first compound 2 µM", "value": 0.0287}, {"measurement": "relative viability", "setting": "NCI-H522; first compound 0.02 µM", "value": 1.13}, {"measurement": "relative viability", "setting": "NCI-H522; first compound 0.2 µM", "value": 0.943}, {"measurement": "relative viability", "setting": "NCI-H522; first compound 0.6325 µM", "value": 1.11}, {"measurement": "relative viability", "setting": "NCI-H522; first compound 2 µM", "value": 0.949}, {"measurement": "relative viability", "setting": "NCI-H596; first compound 0.02 µM", "value": 1.01}, {"measurement": "relative viability", "setting": "NCI-H596; first compound 0.2 µM", "value": 0.74}, {"measurement": "relative viability", "setting": "NCI-H596; first compound 0.6325 µM", "value": 0.84}, {"measurement": "relative viability", "setting": "NCI-H596; first compound 2 µM", "value": 0.715}, {"measurement": "relative viability", "setting": "NCI-H647; first compound 0.02 µM", "value": 0.175}, {"measurement": "relative viability", "setting": "NCI-H647; first compound 0.2 µM", "value": 0.171}, {"measurement": "relative viability", "setting": "NCI-H647; first compound 0.6325 µM", "value": 0.303}, {"measurement": "relative viability", "setting": "NCI-H647; first compound 2 µM", "value": 0.146}, {"measurement": "relative viability", "setting": "RERF-LC-KJ; first compound 0.02 µM", "value": 1.27}, {"measurement": "relative viability", "setting": "RERF-LC-KJ; first compound 0.2 µM", "value": 1.38}, {"measurement": "relative viability", "setting": "RERF-LC-KJ; first compound 0.6325 µM", "value": 1.29}, {"measurement": "relative viability", "setting": "RERF-LC-KJ; first compound 2 µM", "value": 1.16}, {"measurement": "relative viability", "setting": "SW 900; first compound 0.02 µM", "value": 0.187}, {"measurement": "relative viability", "setting": "SW 900; first compound 0.2 µM", "value": 0.152}, {"measurement": "relative viability", "setting": "SW 900; first compound 0.6325 µM", "value": 0.176}, {"measurement": "relative viability", "setting": "SW 900; first compound 2 µM", "value": 0.151}]}
